Results taken from patent US4582827A, “Pesticidal diphenylaziridines” (priority 1983, dated 1986).

Tests used:
mammals = conditions: cited from earlier work
[1] = test system: Popillia japonica (larvae); assay: Topical application study, Popillia japonica larvae; format: in vivo; conditions: 500 μg/g, approx. 250 mg, w/in 24 hr
Excerpt: (§1) Preliminary tests with topical applications of Compound 13 have been conducted on a number of insect species representing 5 different orders. Since the same amount of compound was used, regardless of body size, the smaller species received a larger dose/body mass. More extensive work will be required to establish LD50 values. […]

[2] = test system: Malacosoma americanum (larvae); assay: Topical application study, Malacosoma americanum larvae; format: in vivo; conditions: 1000 μg/g, approx. 500 mg, w/in 24 hr
Excerpt: as §1

Estigmene acrea (larvae) = assay: Topical application study, Estigmene acrea larvae; format: in vivo; conditions: 1250 μg/g, approx. 800 mg, w/in 24 hr
Excerpt: as §1

Musca autumnalis (Adult) = assay: Topical application study, Musca autumnalis adult; format: in vivo; conditions: 25,000 μg/g
Excerpt: as §1

[3] = test system: Ostrinia nubilalis (larvae); assay: Topical application study, Ostrinia nubilalis larvae; format: in vivo; conditions: 6250 μg/g, approx. 80 mg; nearing pupation size at time of treatment
Excerpt: as §1

[4] = test system: tobacco hornworm (Manduca sexta) larvae; assay: Tobacco hornworm growth and developmental responses to feeding on diets containing the compounds; format: in vivo
Protocol: The compounds produced and described in Example 1 were then tested for pesticidal activity against the tobacco hornworm (Manduca sexta). The screening procedure for these tests began with the larval stage and continued through the pupal and adult stages and finally evaluated egg production. The studies thus permitted the evaluation of the effects of the compounds over several subsequent developmental stages in the total life cycle of the insect, giving estimates of acute toxicity (insecticidalor larvicidal activity) as well as prolonged or delayed effects on development (growth regulation) and reproduction (chemosterilization). The latter are of special importance in conjunction with the integrated pest management approach to insect control.
The test compounds were incorporated into the artificial diet of tobacco hornworm larvae and their subsequent growth and developmental responses were monitored using the following parameters: larval mortality including determination of LD50 values, rate of larval development and weight gain, percent pupation, pupal weight and degree of deformities, percent adult emergence and measures of reproductive capacity such as the number of developed ooctyes, fecundity and fertility. The protocol for the screening tests has been developed over a number of years by Dahlman et al., Comp. Biochem. Physiol. 51A, 33, (1975); Comp. Biochem. Physiol., 52A, 105 (1975); Ent. Exp. et Appl., 22, 123 (1977); Palumbo and D. L. Dahlman, J. Econ. Entomol. 71, 674 (1978); D. L. Dahlman, Ent. Exp. et Appl., 24, 327 (1978).
Each treatment used 15 newly ecdysed fifth-instar larvae. Death of larvae within a few hours to several days of initial exposure was considered to be acute toxicity. However, the compounds may reduce the maximum size attained by larvae and/or may retard growth so that larvae require additional time to attain their maximum size. Developmental parameters subsequent to the feeding stage also may be affected. […] Mortality may occur in the pupal stage or emerging adults may have wrinkled wings or other deformities. The number of eggs produced by treated females may be reduced and/or unfertile. Although acute toxicity is desirable in the control of any insect, the delayed effects which result in poor survival and reduced reproductive capacity are significant factors in the long-range program of pest management systems.
Continuous cultures of M. sexta are maintained according to the procedures of Yamamoto, J. Econ. Entomol., 62, p. 1427 (1969). Ingredients of the diet formulation include sugar, casein, wheat germ oil, cholesterol, salt mixture, yeast, vitamins, antioxidants and fungal inhibitors, such as ascorbic acid, sorbic acid, formaldehyde and methyl-p-benzoate. All are incorporated into a liquid agar base which, when poured into holding pans, solidifies to form an adequate substrate upon which the insect larvae feed. Nearly any test material can be uniformly incorporated into such a diet. Thus, exposure to experimental compounds can be evaluated during all or any part of the larval stage. In addition, chronic or long-term effects in subsequent life stages can also be monitored.
The results from these studies, in which the 1,2-diphenylaziridines of Example 1 were incorporated singly into the diet of M. sexta at a concentration of 5 mM are presented in the following Table I.

[5] = test system: Blattella germanica (adult); assay: Topical application study, Blattella germanica adult; format: in vivo; conditions: 7150 μg/g, approx. 70 mg, w/in 24 hr
Excerpt: as §1

[6] = test system: Periplaneta americana (adult); assay: Topical application study, Periplaneta americana adult; format: in vivo; conditions: 666 μg/g, approx. 750 mg, w/in 24 hr
Excerpt: as §1

[7] = test system: tobacco hornworm larvae (newly ecdysed fifth-instar); assay: Topical application to tobacco hornworm larvae; format: in vivo, Manduca sexta
Protocol: The test compounds were dissolved either in acetone or hexane and applied to the integument of the test insect with a micro applicator. Newly ecdysed fifth-instar tobacco hornworm larvae weighing between 1-1.5 g were used and toxicity data were obtained in the same way as previously described.

H. virescens larvae = assay: Topical application to H. virescens larvae; format: in vivo, Heliothis virescens; conditions: for larvae killed: within 48 hr
[8] = test system: Hyphantria cunea (larvae); assay: Topical application study, Hyphantria cunea larvae; format: in vivo; conditions: 5000 μg/g, approx. 100 mg, w/in 24 hr
Excerpt: as §1

Musca domestica (Adult) = assay: Topical application study, Musca domestica adult; format: in vivo; conditions: 25,000 μg/g
Excerpt: as §1

[9] = test system: Podisus maculiventris (nymphs & adults); assay: Topical application study, Podisus maculiventris nymphs & adults; format: in vivo; conditions: 10,000 μg/g
Excerpt: as §1

H. virescens = assay: Incorporation into H. virescens diet; format: in vivo, Heliothis virescens; conditions: as much as 20 mM in diet
Protocol: Compounds 1, 10, 11, 13 and 14 were incorporated into H. virescens diet in the same manner as M. Sexta. Diets containing as much as 20 mM of each compound had little effect on larval development time, pupal weight or time to adult emergence.

[10] = test system: Blaberus discoidalis (nymphs); assay: Topical application study, Blaberus discoidalis nymphs; format: in vivo; conditions: 1000 μg/g, approx. 500 mg, w/in 24 hr
Excerpt: as §1

[11] = 5 mM in diet, all tests began with 15 larvae
[12] = 1500 ppm topical, 200 mg 5th instars

SMILES: CC1CN1P(=O)(N1CC1C)N1CC1C (centres unmarked) [metepa, tris(2-methyl-1-aziridinyl)phosphine oxide]
- toxicity reported in the literature (mammals): carcinogenic and mutagenic properties

SMILES: Fc1ccc(N2CC2c2ccccc2Cl)cc1 (centres unmarked) [Compound 13]
- mortality at 500 µg/g [1]: 100%
- mortality at 1000 µg/g [2]: 100%
- mortality at 1250 µg/g (Estigmene acrea (larvae)): 33%
- time to 100% mortality (Musca autumnalis (Adult)): ≤ 2 h
- mortality at 25000 µg/g (Musca autumnalis (Adult); Musca autumnalis, topical, approx. 20 mg, w/in 2 hr): 100%
- Result [3]: No effect
- % Adult Emergence ([4]; 1 mM in diet): 100%
- % Adults ([4]; 1 mM in diet): 100%
- % Malformed Adults ([4]; 1 mM in diet): 7%
- % Pupation ([4]; 1 mM in diet): 100%
- Days to Max Wt ([4]; 1 mM in diet): 6.7 ± .2 days
- Max Larval Wt ([4]; 1 mM in diet): 9.50 g
- Mean No. of Eggs ([4]; 1 mM in diet): 71 ± 8
- No. of female Adults ([4]; 1 mM in diet): 11
- Total No. of Adults ([4]; 1 mM in diet): 15
- % Adult Emergence ([4]; 2.5 mM in diet): 86%
- % Adults ([4]; 2.5 mM in diet): 86%
- % Malformed Adults ([4]; 2.5 mM in diet): 0%
- % Pupation ([4]; 2.5 mM in diet): 100%
- Days to Max Wt ([4]; 2.5 mM in diet): 8.7 ± 0.5 days
- Max Larval Wt ([4]; 2.5 mM in diet): 8.03 g
- Mean No. of Eggs ([4]; 2.5 mM in diet): 21 ± 9
- No. of female Adults ([4]; 2.5 mM in diet): 9
- Total No. of Adults ([4]; 2.5 mM in diet): 12
- maximum larval weight and mean number of eggs ([4]; 2.5 mM in diet): reduced maximum larval weight and the mean number of eggs
- % Adult Emergence ([4]; 5 mM in diet): 13%
- % Malformed Adults ([4]; 5 mM in diet): 50%
- % Pupation ([4]; 5 mM in diet): 13%
- Days to Max Wt ([4]; 5 mM in diet): 10.0 ± 4.2 days
- Max Larval Wt ([4]; 5 mM in diet): 6.13 ± .62 g
- No. of female Adults ([4]; 5 mM in diet): 0
- larval mortality ([4]; 5 mM in diet): all or nearly all larvae died
- weight gain of surviving larvae ([4]; 5 mM in diet): no weight gain for 4 or more days
- wrinkled or crumpled wings of moths ([4]; 5 mM in diet): observed in significant numbers of moths
- larvae dead by day two ([4]; 5 mM in diet, day two): 60%
- Total No. of Adults [4, 11]: 2
- oral activity ([4]; diet, Example 2): good oral activity
- larval mortality (acute toxicity) ([4]; in 24-72 hours, summary of Tables I and II): 100%
- time to 100% larval mortality ([4]; summary of Tables I and II): 24 to 72 h
- mortality at 7150 µg/g [5]: 100%
- mortality at 666 µg/g [6]: 100%
- mortality at 125 µg/larva ([7]; Manduca sexta, topical, 125 μg/larva (100 μg/g or 100 ppm), within 24 hr): 60%
- topical activity against the tobacco hornworm (comparison in words) ([7]; topical): the greatest topical activity
- larval size and number of eggs ([7]; topical, 50 and 25 ppm): reduced larval size and smaller number of eggs
- mortality (H. virescens larvae; [12]): failed to kill any of the larvae
- symptoms (H. virescens larvae; [12]): produced some of the symptoms characteristic of this group of compounds
- mortality at 5000 µg/g [8]: 50%
- time to 100% mortality (Musca domestica (Adult)): ≤ 1.5 h
- mortality at 25000 µg/g (Musca domestica (Adult); Musca domestica, topical, approx. 20 mg, 2/in 1.5 hr): 100%
- time to 100% mortality [9]: ≤ 1.2 h
- mortality at 10000 µg/g ([9]; Podisus maculiventris, topical, approx. 50 mg, w/in 1.2 hr): 100%
- effect on larval development time, pupal weight or time to adult emergence (H. virescens): little effect
- mortality at 1000 µg/g [10]: 100%

SMILES: O=P(N1CC1)(N1CC1)N1CC1 [tepa, tris(1-aziridinyl)-phosphine oxide]
- toxicity reported in the literature (mammals): carcinogenic and mutagenic properties

SMILES: Fc1ccc(N2CC2c2ccccc2F)cc1 (centres unmarked) [Compound 15]
- % Adult Emergence ([4]; 5 mM in diet): 60%
- % Malformed Adults ([4]; 5 mM in diet): 0%
- % Pupation ([4]; 5 mM in diet): 67%
- Days to Max Wt ([4]; 5 mM in diet): 6.7 ± .4 days
- Max Larval Wt ([4]; 5 mM in diet): 8.04 ± .41 g
- Mean No. of Eggs ([4]; 5 mM in diet): 67 ± 42
- No. of female Adults ([4]; 5 mM in diet): 3
- Total No. of Adults [4, 11]: 9
- size of surviving larvae ([7]; 125 μg/larvae): smaller than controls
- mortality at 125 µg/larva ([7]; Manduca sexta, topical, 125 μg/larvae, during the entire 5th instar): 20%
- mortality at 250 µg/larva ([7]; Manduca sexta, topical, 250 μg/larva, within 24 hr): 100%
- larvae killed (H. virescens larvae; 62.5 μg/larva or 625 ppm topical, 100 mg larvae): 60%
- larvae killed (H. virescens larvae; 312 ppm topical): 40%
